In patent US9340532B2, “Methods and compositions for inhibiting CNKSR1” (PHUSIS THERAPEUTICS, INC., priority 2012, dated 2016):
Values joined by “and” are separate entries in the source; they are usually repeats but may differ in a detail not shown here. Identical values can stand only once. Like-named read-outs stand apart in the source and are kept apart here.

How the values were obtained:
[1] = tested on: H1373 (KRAS mutant cell line); assay: Proliferation Assay H1373; type: cell-based; conditions: Homo sapiens, NCI-H1373, N = 2 experiments
Description: (§1) The isogenic KRAS lines harboring G12D, G12C, and G12V were obtained from Horizon Discovery labs on a one year lease. These cells were cultured in McCoys media with 10% FBS to 80% confluency. Cells were then released from flasks via trypsinization and plated into 96-well plates at an initial density range of 2000 cells per well. Cells were allowed 24 hours to attach, and then the agents were added to the culture media at a range of concentrations from 0-100 μM. Cells were incubated for 72 hours with the drugs, and then viability was assessed using an MTS viability assay. Cells were exposed to MTS reagent (Promega) dissolved in PBS (Hyclone) at a concentration of 200 μL reagent/mL media for 2 hours. Absorbance was then read at 490 nm, and viability was expressed as a percentage normalized between the negative control (no cells plated) and the condition of cells with no drug added (100% viability) normalized as the upper limit of viability.
(§2) Our panel of 30 cell lines and an extensive characterization were obtained from Dr. John Minna (UTSW). All cell lines were cultured in RPMI 1640 with 10% FBS. Cells were treated with concentrations of agents at concentrations 0.01 to 50 μM and evaluated as described above. IC50's were determined using Excelfit.

[2] = tested on: H226 (KRAS wildtype cell line); assay: Proliferation Assay H226; type: cell-based; conditions: Homo sapiens, NCI-H226, n = 1
Description: as §1, §2

AKT1 PH-domain = molecular target: T1, AKT1 PH-domain (Homo sapiens, UniProt P31749); assay: SPR binding assay (Biacore T100), AKT1 PH-domain; conditions: read-out: AKT KD
T1 construct: The PH-domain His-fusion proteins (CNK1 and AKT1) were expressed and immobilized on a NTA chip; made in house
Description: (§3) All interaction analyses were done with a Biacore T100 Control Software v3.2, and BIAevaluation v4.1 analysis software (Biacore). The PH-domain His-fusion proteins (CNK1 and AKT1) were expressed and immobilized on a NTA chip to a level of 10,000 response units or less. Small molecule analytes at concentrations ranging from 50 μM to 0.010 μM were injected at a high flow rate (30 μL/min) DMSO concentrations in all samples and running buffer were 1-5% (v/v).
(§4) A commercially available docking package, GOLD (GOLD [3.2], CCDC: Cambridge, UK, 2007) was used to evaluate the docking of compounds 1-7 into the binding pocket, see e.g. Table 5. Other docking was performed using modeling algorithms with state-of-the-art commercial drug discovery software (Schrodinger suite). GLIDE was chosen as the docking algorithm used to select and optimize compounds, providing a GlideScore as a rough estimate of binding affinity that was used to rank and select the best compounds. Additionally, ligand-based approaches provided an alternative to structure based drug discovery. Ligand-based virtual screening methodologies can take into account shape and electrostatics (like ROCS) and the pharmacophoric features (acceptor, donor, hydrophobic, aromatic, etc.) of its functional groups. Inositol tetraphosphate (IP4) binding to the PH-domain of CNKSR1 provided a good starting point for shape screening. Both structure-based and ligand-based approaches were used to find novel compounds (Table 7) and to refine and improve lead compounds (Tables 8, and 9). SPR interaction analyses for Compounds 1 through 7 were performed with a Biacore 2000, using Biacore2000 Control Software v3.2 and BIAevaluation v4.1 analysis software (Biacore) as described in Mol Cancer Ther 7:2621 (2008). SPR interaction analyses of all other compounds was undertaken using a Biacore T100 with Control and Evaluation software kit.

[3] = tested on: A549 (KRAS mutant cell line); assay: Proliferation Assay A549; type: cell-based; conditions: Homo sapiens, N = 2 experiments
Description: as §1, §2

PLE = assay: SPR binding, PLE; conditions: Table 8
Description: as §4, with “SPR interaction analyses of all other compounds was undertaken using a Biacore T100 with Control and Evaluation software kit.” left out

CNK1 PH-domain (CNKSR1) = molecular target: T2, CNK1 PH-domain (CNKSR1) (Homo sapiens, UniProt Q969H4); assay: SPR binding assay (Biacore T100), CNK1 PH-domain; conditions: for Surface Plasmon Resonance CNKSR1 binding (RU max) / Surface Plasmon Resonance CNKSR1 stability (RU max post-injection): date 12 09 13
T2 construct: The PH-domain His-fusion proteins (CNK1 and AKT1) were expressed and immobilized on a NTA chip; made in house
T2 sequence (Q969H4 403-502 limits assumed): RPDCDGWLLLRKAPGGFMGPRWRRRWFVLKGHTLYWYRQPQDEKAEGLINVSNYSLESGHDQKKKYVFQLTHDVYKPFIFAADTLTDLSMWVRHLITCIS
Description: as §3
(§5) Other docking was performed using modeling algorithms with state-of-the-art commercial drug discovery software (Schrodinger suite). […] Additionally, ligand-based approaches provided an alternative to structure based drug discovery. Ligand-based virtual screening methodologies can take into account shape and electrostatics (like ROCS) and the pharmacophoric features (acceptor, donor, hydrophobic, aromatic, etc.) of its functional groups. […] SPR interaction analyses of all other compounds was undertaken using a Biacore T100 with Control and Evaluation software kit.

[4] = tested on: H1975 (KRAS wildtype cell line); assay: Proliferation Assay H1975; type: cell-based; conditions: Homo sapiens, NCI-H1975, n = 1
Description: as §1, §2

[5] = Mouse pharmacokinetics (iv); type: in vivo; conditions: for clearance: in vivo
[6] = tested on: mut-KRAS NSCLC cell lines; assay: Screening against NSCLC cell line panel, mut-KRAS lines; type: cell-based
Description: as §1, §2

wt-KRAS NSCLC cell lines = assay: Screening against NSCLC cell line panel, wt-KRAS lines; type: cell-based; conditions: Table 6, mean of 3 wt-KRAS lines; read-out: NSCL cell line cytotoxicity IC50 wt-KRAS
Description: as §1, §2

PH-domain of CNKSR1 = molecular target: T3, PH-domain of CNKSR1 (Homo sapiens, UniProt Q969H4); assay: SPR binding (Biacore 2000) to CNKSR1 PH-domain, initial hits; conditions: Table 5
T3 sequence (Q969H4 403-502 limits assumed): T2 sequence (Q969H4 403-502 limits assumed)
Description: In embodiments, a homology model for the PH-domain of CNSKR1 based on known PH-domain crystal structures can be developed. The docking program PHuDock® can be used to identify potential inhibitors of CNKSR1. […] The binding of the compounds to the expressed PH-domain of CNKSR1 (KDobs) can be measured by surface plasmon resonance (SPR) spectroscopy.
as §5

PH-domain of Tiam1 = assay: SPR binding to expressed PH-domain of Tiam1
Description: (§6) In embodiments, the binding of identified compounds to the crystal structures of other PH-domain signaling proteins, AKT, PDPK1, Btk, and Tiam1 can be predicted. In such embodiments, the Kds exceed about 100 μM. In other embodiments, SPR can measure the binding of identified compounds to the expressed PH-domains of AKT, PDPK1 and Tiam1. […] Thus, the identified compounds appear have, at least, about 50 to about 100 fold selectivity for CNKSR1 compared to the other PH-domains studied.
(§7) A commercially available docking package, GOLD (GOLD [3.2], CCDC: Cambridge, UK, 2007) was used to evaluate the docking of compounds 1-7 into the binding pocket, see e.g. Table 5. Other docking was performed using modeling algorithms with state-of-the-art commercial drug discovery software (Schrodinger suite). GLIDE was chosen as the docking algorithm used to select and optimize compounds, providing a GlideScore as a rough estimate of binding affinity that was used to rank and select the best compounds. Additionally, ligand-based approaches provided an alternative to structure based drug discovery. Ligand-based virtual screening methodologies can take into account shape and electrostatics (like ROCS) and the pharmacophoric features (acceptor, donor, hydrophobic, aromatic, etc.) of its functional groups. […]

PH-domain of PDPK1 = molecular target: T4, PH-domain of PDPK1 (Homo sapiens, UniProt O15530); assay: SPR binding to expressed PH-domain of PDPK1
T4 construct: made in house
T4 sequence (O15530 459-550 limits assumed): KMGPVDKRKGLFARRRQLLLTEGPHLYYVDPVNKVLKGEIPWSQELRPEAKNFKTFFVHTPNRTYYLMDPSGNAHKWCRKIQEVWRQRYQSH
Description: as §6, §7

PH-domain of AKT = molecular target: T5, PH-domain of AKT (Homo sapiens, UniProt P31749); assay: SPR binding to expressed PH-domain of AKT
T5 construct: made in house
Description: as §6, §7

[7] = Pharmacokinetics after oral administration; type: in vivo, mice; conditions: compound 8 administered orally to mice at the same dose (200 mg/kg); 200 mg/kg
Description: In order to understand better the reasons for the antitumor activity of compound #7 pharmacokinetic studies were conducted. […] Following oral administration in vivo plasma concentrations of the parent compound were low, about 3 μg/ml (7 μM) whereas the de-esterified acid form (compound 8) was present at high peak concentrations of around 50 μg/ml (128 μM). When compound 8 was administered orally to mice at the same dose even higher peak concentrations of 90 μg/ml (230 μM) were achieved.

[8] = Table 6, mean of 3 mut-KRAS lines, read-out: NSCL cell line cytotoxicity IC50 mut-KRAS

T1 sequence (P31749 5-108 limits assumed): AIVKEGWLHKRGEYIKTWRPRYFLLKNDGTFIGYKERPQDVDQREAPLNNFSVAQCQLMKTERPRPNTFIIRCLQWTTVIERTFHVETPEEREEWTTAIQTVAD
T5 sequence (P31749 5-108 limits assumed): as above

SMILES	IC50 [1] [µM]	IC50 [2] [µM]	Kd (AKT1 PH-domain; Table 8) [µM]	IC50 [3] [µM]	Kd (PLE) [µM]	Kd (CNK1 PH-domain (CNKSR1); Table 8, read-out: CNK KD) [µM]	Surface Plasmon Resonance CNKSR1 binding (RU max) (CNK1 PH-domain (CNKSR1)) [RU * 100/Da]	Surface Plasmon Resonance CNKSR1 stability (RU max post-injection) (CNK1 PH-domain (CNKSR1)) [RU * 100/Da]	IC50 [4] [µM]	Kd (AKT1 PH-domain; Table 6) [µM]	t1/2β [5] [h]	clearance [5] [mL/min/kg]	IC50 [6, 8] [µM]	Kd (CNK1 PH-domain (CNKSR1); Table 6, read-out: CNKS KD) [µM]	IC50 (wt-KRAS NSCLC cell lines) [µM]	other results
CCOC(=O)/C=C/c1c(O)c(OC)cc(NS(=O)(=O)c2cccs2)c1SC [Compound 103, ethyl (2E)-3-[2-hydroxy-3-methoxy-6-(methylsulfanyl)-5-(thiopliene-2-sulfonamido)phenyl]prop-2-enoate]	> 100	> 100	330	75	300	0.157	2.635	3.148	> 100							
Cc1ccc(-c2csc(Cn3nc(CC4OCCCO4)c4ccccc4c3=O)n2)cc1 [Compound 9]	> 100	> 100		42					100	66.3	4.33	133	25	0.026	55	
CC(=O)Nc1cccc(-n2nnc(SCC(=O)c3cc(-c4ccccc4)no3)n2)c1 [Compound 120]																IC50 ([6]; Table 5, read-out: Mean IC50 mut-KRAS): 47 ± 5.2 µM; Kd (PH-domain of CNKSR1): 3.3 ± 1.2 µM
CCOC(=O)/C=C/c1cc(NS(=O)(=O)c2cccs2)c2c(c1O)OCO2 [Compound 88, (E)-ethyl 3-(4-hydroxy-7-(thiophene-2-sulfonamido)benzo[d][1,3]dioxol-5-yl)acrylate]	> 100	> 100	75.2	> 100	261	0.186	0.817	1.138	> 100							
CCOC(=O)Cc1nn(SCC(=O)O)c(=O)c2ccccc12 [#4]																SPR binding to PH-domain of Tiam1 (PH-domain of Tiam1): No measurable binding; inhibition of mut-KRAS cell growth (in words) ([6]; FIG. 3 and FIG. 5): low micromolar inhibition; SPR binding to PH-domain of PDPK1 (PH-domain of PDPK1): No measurable binding; SPR binding to PH-domain of AKT (PH-domain of AKT): No measurable binding
Cc1ccc(-c2csc(Cn3nc(CC(=O)O)c4ccccc4c3=O)n2)cc1 [Compound 8]										51.6	1.2	4740	> 100	> 100	> 100	activity in cells in culture ([6]; FIG. 5): inactive; peak plasma concentration [7]: 90 μg/ml and 230 μM
